Where two headings read alike, the source gives them in different places.
Tests used:
[1] = Phase 1 trial: plasma pharmacokinetics; assay type: in vivo; settings: human; for AUC(0-t): read-out: AUC0–12 h mean; for MRT inf: read-out: MRTINF_obs mean
Text: Serial plasma samples were also collected in each patient after the first dose and during multiple-dose administration on Cycle 1 Day 28.

[2] = Excretion in rats (feces, urine, bile); assay type: in vivo
Protocol: The total fecal and urinary excretion of prodrug and metabolite was 62.8% of the administered dose. The amount of prodrug and metabolite in bile from 0 to 48 h in bile duct-intubated rats was 5.22% of the administered dose, of which 0.656% was prodrug and 4.57% was metabolite.

CYP1A2 = target: T1, CYP1A2 (Homo sapiens, UniProt P05177); assay: CYP inhibition in human liver microsomes; assay type: in vitro ADME; settings: 0.5-25 μM
T1 construct: substrates of different CYP450 enzymes in mixed human liver microsomes; from tissue; host or cells: mixed human liver microsomes
T1 sequence (P05177 whole entry): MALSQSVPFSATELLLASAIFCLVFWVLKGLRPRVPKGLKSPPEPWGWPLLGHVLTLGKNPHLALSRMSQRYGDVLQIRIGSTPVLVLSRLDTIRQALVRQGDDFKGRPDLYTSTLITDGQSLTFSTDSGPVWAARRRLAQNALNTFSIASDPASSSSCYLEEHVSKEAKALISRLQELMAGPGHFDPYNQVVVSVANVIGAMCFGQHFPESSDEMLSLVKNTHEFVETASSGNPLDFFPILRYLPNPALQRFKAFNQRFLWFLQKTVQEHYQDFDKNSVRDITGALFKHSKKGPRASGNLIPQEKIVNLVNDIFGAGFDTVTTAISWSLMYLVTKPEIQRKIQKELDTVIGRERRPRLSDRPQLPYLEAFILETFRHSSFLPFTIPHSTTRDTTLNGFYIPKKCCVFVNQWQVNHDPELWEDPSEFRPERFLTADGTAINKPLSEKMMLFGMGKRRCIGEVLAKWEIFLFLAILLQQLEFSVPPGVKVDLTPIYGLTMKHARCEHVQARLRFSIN

[3] = Tissue distribution in rats; assay type: in vivo; settings: both sexes, rat, po, 20 mg/kg gavage
Text: The exposures in body fat, small intestine, heart, uterus, skeletal muscle, testis and brain were lower than in plasma and the rest were higher than in plasma. The highest exposures were found in the liver, stomach and lung, which were 358, 202 and 173% of plasma, respectively. […] There was no significant sex difference in the exposure of SY-5007 in rat tissues.

central nervous system = assay: Central nervous system safety pharmacology; assay type: in vivo, SD rats; settings: single oral, males 15-40, females 30-80 mg/kg
Protocol: All rats were evaluated for cage-side observation, detailed clinical observation, body weight and neurofunctional behavioural indices including in-cage observation, restraint observation, field observation, stimulus reflex observation and body temperature.

Caco-2 permeability = assay type: in vitro ADME, human
[4] = test system: RET phosphorylation in BaF3-CCDC6-RET^WT cells; assay: RET signaling pathway phosphorylation in cells; assay type: cell-based
[5] = 200 mg, Cycle 1 Day 28, 200 mg BID (n = 5)
[6] = oral, 20 mg, Cycle 1 Day 28, 20 mg BID (n = 1)
[7] = oral, 20 mg, Cycle 1 Day 28, 20 mg QD (n = 1)
[8] = oral, 40 mg, Cycle 1 Day 28, 40 mg BID (n = 3)
[9] = oral, 80 mg, Cycle 1 Day 28, 80 mg BID (n = 3)
[10] = oral, 120 mg, Cycle 1 Day 28, 120 mg BID (n = 3)
[11] = oral, 200 mg, Cycle 1 Day 1, 200 mg BID (n = 9)

For `COc1ccc(CN2C3CC2CN(c2ccc(-c4cc(N5CC(C)(O)C5)cn5ncc(C#N)c45)cn2)C3)cn1` [SY-5007, 6-(3-hydroxy-3-methylazetidin-1-yl)-4-(6-(6-((6-methoxypyridin-3-yl)methyl)-3,6-diazabicyclo[3.1.1]heptan-3-yl)pyridin-3-yl)pyrazolo[1,5-a]pyridine-3-carbonitrile], the AUC(0-t) [1, 5] was 41100 ng·h/mL, the AUC(0-inf) ([1]; 200 mg, Cycle 1 Day 28, 200 mg BID (n = 5), read-out: AUCINF_obs mean) was 63700 ng·h/mL and the Cmax ([1]; 200 mg, Cycle 1 Day 28, 200 mg BID (n = 5), read-out: Cmax mean) was 5520 ng/mL. The MRT inf [1, 5] was 10.8 h, the half-life ([1]; 200 mg, Cycle 1 Day 28, 200 mg BID (n = 5), read-out: T1/2 mean (converted)) was 7 h and the Tmax ([1]; 200 mg, Cycle 1 Day 28, 200 mg BID (n = 5), read-out: Tmax mean) was 2 h. For the same molecule, the AUC(0-t) [1, 6] was 2940 ng·h/mL, the AUC(0-inf) ([1]; oral, 20 mg, Cycle 1 Day 28, 20 mg BID (n = 1), read-out: AUCINF_obs mean) was 4020 ng·h/mL and the Cmax ([1]; oral, 20 mg, Cycle 1 Day 28, 20 mg BID (n = 1), read-out: Cmax mean) was 640 ng/mL. The MRT inf [1, 6] was 9 h, the half-life ([1]; oral, 20 mg, Cycle 1 Day 28, 20 mg BID (n = 1), read-out: T1/2 mean (converted)) was 7.3 h and the Tmax ([1]; oral, 20 mg, Cycle 1 Day 28, 20 mg BID (n = 1), read-out: Tmax mean) was 0.5 h. The AUC(0-t) [1, 7] was 2200 ng·h/mL, the AUC(0-inf) ([1]; oral, 20 mg, Cycle 1 Day 28, 20 mg QD (n = 1), read-out: AUCINF_obs mean) was 2340 ng·h/mL and the Cmax ([1]; oral, 20 mg, Cycle 1 Day 28, 20 mg QD (n = 1), read-out: Cmax mean) was 388 ng/mL. The MRT inf [1, 7] was 7.7 h, the half-life ([1]; oral, 20 mg, Cycle 1 Day 28, 20 mg QD (n = 1), read-out: T1/2 mean (converted)) was 6 h and the Tmax ([1]; oral, 20 mg, Cycle 1 Day 28, 20 mg QD (n = 1), read-out: Tmax mean) was 1 h. The AUC(0-t) [1, 8] was 5810 ng·h/mL, the AUC(0-inf) ([1]; oral, 40 mg, Cycle 1 Day 28, 40 mg BID (n = 3), read-out: AUCINF_obs mean) was 7100 ng·h/mL and the Cmax ([1]; oral, 40 mg, Cycle 1 Day 28, 40 mg BID (n = 3), read-out: Cmax mean) was 1280 ng/mL. For the same molecule, the MRT inf [1, 8] was 6.8 h, the half-life ([1]; oral, 40 mg, Cycle 1 Day 28, 40 mg BID (n = 3), read-out: T1/2 mean (converted)) was 5 h and the Tmax ([1]; oral, 40 mg, Cycle 1 Day 28, 40 mg BID (n = 3), read-out: Tmax mean) was 0.5 h. For the same molecule, the AUC(0-t) [1, 9] was 12600 ng·h/mL, the AUC(0-inf) ([1]; oral, 80 mg, Cycle 1 Day 28, 80 mg BID (n = 3), read-out: AUCINF_obs mean) was 18800 ng·h/mL and the Cmax ([1]; oral, 80 mg, Cycle 1 Day 28, 80 mg BID (n = 3), read-out: Cmax mean) was 1960 ng/mL. For the same molecule, the MRT inf [1, 9] was 8.2 h, the half-life ([1]; oral, 80 mg, Cycle 1 Day 28, 80 mg BID (n = 3), read-out: T1/2 mean (converted)) was 5.5 h and the Tmax ([1]; oral, 80 mg, Cycle 1 Day 28, 80 mg BID (n = 3), read-out: Tmax mean) was 1 h. The AUC(0-t) [1, 10] was 21500 ng·h/mL, the AUC(0-inf) ([1]; oral, 120 mg, Cycle 1 Day 28, 120 mg BID (n = 3), read-out: AUCINF_obs mean) was 34000 ng·h/mL and the Cmax ([1]; oral, 120 mg, Cycle 1 Day 28, 120 mg BID (n = 3), read-out: Cmax mean) was 2870 ng/mL. It also gave an MRT inf [1, 10] of 10.5 h, a half-life ([1]; oral, 120 mg, Cycle 1 Day 28, 120 mg BID (n = 3), read-out: T1/2 mean (converted)) of 7 h and a Tmax ([1]; oral, 120 mg, Cycle 1 Day 28, 120 mg BID (n = 3), read-out: Tmax mean) of 1 h. It also gave an AUC(0-t) [1, 11] of 14900 ng·h/mL, an AUC(0-inf) ([1]; oral, 200 mg, Cycle 1 Day 1, 200 mg BID (n = 9), read-out: AUCINF_obs mean) of 21600 ng·h/mL and a Cmax ([1]; oral, 200 mg, Cycle 1 Day 1, 200 mg BID (n = 9), read-out: Cmax mean) of 3180 ng/mL. The MRT inf [1, 11] was 15 h, the half-life ([1]; oral, 200 mg, Cycle 1 Day 1, 200 mg BID (n = 9), read-out: T1/2 mean (converted)) was 23.9 h and the Tmax ([1]; oral, 200 mg, Cycle 1 Day 1, 200 mg BID (n = 9), read-out: Tmax mean) was 1 h. For the same molecule, the AUC(0-inf) ([1]; oral, single dose, 20 mg to 160 mg, read-out: AUCINF_obs range) was 2410 to 21300 ng·h/mL, the Cmax ([1]; oral, single dose, 20 mg to 160 mg, read-out: Cmax range) was 214 to 3470 ng/mL and the half-life ([1]; oral, single dose, read-out: Mean T1/2 across dose cohorts) was 6.8 to 44.4 h. The Tmax ([1]; oral, single dose, read-out: Mean Tmax across dose cohorts) was 0.5 to 4 h, the “Fecal excretion, prodrug (parent)” value ([2]; 20 mg/kg gavage) was 55.4% and the “Urinary excretion, prodrug (parent)” value ([2]; 20 mg/kg gavage) was 0.801%. The “Bile excretion, prodrug (parent)” value ([2]; bile duct-intubated rats) was 0.656%, the IC50 (CYP1A2) was over 25 µM and the Kp ([3]; brain, read-out: Brain exposure (AUC0~24h)) was 0.00195. The Kp ([3]; liver, read-out: Liver exposure (AUC0~24h)) was 3.58, the Kp ([3]; lung, read-out: Lung exposure (AUC0~24h)) was 1.73 and the Kp ([3]; stomach, read-out: Stomach exposure (AUC0~24h)) was 2.02. The CNS effects (central nervous system) was “did not affect any of the assessed neurofunctional-behavioural parameters”, the Permeability class (Caco-2 permeability) was “moderately permeable” and the “Concentration at which effect reaches saturation” value [4] was 10 nM. For the same molecule, the “Concentration significantly inhibiting RET phosphorylation” value [4] was 1 nM.
